Counter-ions that a name gives are not always drawn.
Tests used:
[1] = typical duration of action (period of therapeutic effect) of an immediate release dose, from product labeling; type: in vivo; conditions: for ATDAIRD (average therapeutic duration of action of an effective immediate release dose): average of typical duration range; for ATDAIRD: as restated, unit not given
From the text: As used herein, “ATDAIRD” shall mean the average therapeutic duration of action of an effective immediate release dose” of a particular active ingredient. […] The therapeutic duration of action of a particular active ingredient can readily be determined from the dosing instructions in the labeling for immediate release products containing that particular active ingredient.

[2] = background statement; typically administered every 2 to 4 hours; cited from earlier work

SMILES	ATDAIRD (average therapeutic duration of action of an effective immediate release dose) [1] [h]	therapeutically effective plasma concentration (duration) [2]	ATDAIRD [1]
CC(C)Cc1ccc(C(C)C(=O)O)cc1 (stereo not shown) [ibuprofen, 2-(4-isobutylphenyl)-propionic acid]	5	–	–
CC(C(=O)O)c1cccc(C(=O)c2ccccc2)c1 (stereo not shown) [ketoprofen]	5	–	–
COc1ccc2cc([C@H](C)C(=O)O)ccc2c1 [naproxen]	10	–	–
CNC[C@H](O)c1cccc(O)c1 [phenylephrine hydrochloride]	–	about 2.5 hours	–
CNC[C@H](O)c1cccc(O)c1 [phenylephrine, benzynemethanol, 3-hydroxy-α-[(methylamino)methyl]]	3	–	about 3
CN[C@@H](C)[C@@H](O)c1ccccc1 [psuedoephedrine]	–	–	about 3

Reference: patent US9833510B2, “Modified release solid or semi-solid dosage forms” (Johnson & Johnson Consumer Inc., priority 2007, dated 2017)
